Each block holds one compound with its values, some of them ahead of it.
Legend:
[1] = system: ATP aptamer (screened, 32 nt, 5'FAM modified) (DNA, aptamer) TGGCGTCTGCATGCAGGTCGACGCATGCGCCG; test: graphene oxide fluorescence recovery; details: 5 mM KCl, 100 mM NaCl, 1 mM MgCl2, 50 mM Tris-HCl pH 7.4, 25 °C, aptamer 300 nM
[2] = system: Classic ATP aptamer (DNA, aptamer) ACCTGGGGGAGTATTGCGGAGGAAGGT; test: graphene oxide fluorescence recovery; details: 5 mM KCl, 100 mM NaCl, 1 mM MgCl2, 50 mM Tris-HCl pH 7.4, 25 °C, aptamer 300 nM
[3] = system: Functional chimera sequence (DNA, aptamer) TGGCGTCTGCATGCAGGTCGACGCATGCGCCGCCTGAGCTTAGAT; test: release from graphene oxide, PAGE; details: 5 mM KCl, 100 mM NaCl, 1 mM MgCl2; 50 mM Tris-HCl pH 7.4, 25 °C; chimera 2 μM, ATP 1 mM
[4] = system: FAM-labeled functional chimera sequence (DNA, aptamer) TGGCGTCTGCATGCAGGTCGACGCATGCGCCGCCTGAGCTTAGAT; test: fluorescence recovery from graphene oxide; details: 5 mM KCl, 100 mM NaCl, 1 mM MgCl2; 50 mM Tris-HCl pH 7.4, 25 °C; chimera 2 μM, ATP 1 mM
[5] = system: ATP aptamer (screened, 32 nt, 5'FAM modified) (DNA, aptamer) TGGCGTCTGCATGCAGGTCGACGCATGCGCCG; test: graphene oxide fluorescence assay, aptamer titrated at fixed ATP; details: 5 mM KCl, 100 mM NaCl, 1 mM MgCl2, 50 mM Tris-HCl pH 7.4, 25 °C, aptamer 50–500 nM, 1 μL of 100 mM in 200 μL

binding ([1]; 1 μL of 100 mM ADP, ATP 2.4-fold higher): weak
binding ([2]; 1 μL of 100 mM ADP): yes
SMILES: Nc1ncnc2c1ncn2[C@@H]1O[C@H](COP(=O)(O)OP(=O)(O)O)[C@@H](O)[C@H]1O

binding ([1]; 1 μL of 100 mM AMP, ATP 4.7-fold higher): weak
binding ([2]; 1 μL of 100 mM AMP): yes
SMILES: Nc1ncnc2c1ncn2[C@@H]1O[C@H](COP(=O)(O)O)[C@@H](O)[C@H]1O

binding [3]: yes
binding ([2]; 1 μL of 100 mM ATP): yes
binding [4]: yes
Kd [5]: 70.61 ± 20.91 nM
SMILES: Nc1ncnc2c1ncn2[C@@H]1O[C@H](COP(=O)(O)OP(=O)(O)OP(=O)(O)O)[C@@H](O)[C@H]1O

Reference: paper PMC9003339 (2022)
